According to paper PMC11944851, “Computationally Guided Design, Synthesis, and Evaluation of Novel Non-Hydroxamic Histone Deacetylase Inhibitors, Based on N-Trifluoroacetamide as a Zinc-Binding Group, Against Breast Cancer” (Pharmaceuticals, 2025):
Where two headings read alike, the source gives them in different places.

What was measured:
[1] = test system: HDACs in nuclear extract of HeLa cells; assay: HDAC inhibitory activity, fluorescence assay in HeLa nuclear extract; type: biochemical
Experimental: In this in vitro assay, residual HDAC activity was measured in a nuclear extract of HeLa cells after incubation with the different compounds at 5 µM, followed by single endpoint fluorescence measurement.
To obtain nuclear extracts, HeLa cell cultures were used. The HeLa cell line was cultured in high-glucose DMEM medium with phenol red, supplemented with 8% fetal bovine serum (Gibco, Waltham, MA, USA), 1% Penicillin/Streptomycin (10,000 U/mL, Gibco, Waltham, MA, USA), and 1% non-essential amino acids (Gibco, Waltham, MA, USA). Cells were maintained in an incubator at 37 °C and 5% CO2 atmosphere. To obtain the required number of cells for nuclear extraction, two 150 cm^2 flasks were cultured, resulting in approximately 2 × 10^7 cells. The cells were trypsinized with a 10% V/V trypsin solution (Gibco, Waltham, MA, USA) and subsequently centrifuged at 3000 rpm for 10 min for counting with trypan blue using an automatic counter (Mart-Counter 3000, Corning, NY, USA). Solutions for nuclear material extraction were prepared following the protocol of the commercial kit Abcam Ab156064 (ABCAM, Milpitas, CA, USA). For the lysis buffer (solution A), 10 mL was prepared with Tris-HCl (10 mM) pH 7.5, NaCl (10 mM), MgCl2 (15 mM), sucrose (250 mM), EGTA (0.1 mM), and NP-40 (0.5%). For the sucrose buffer (solution B), 15 mL was prepared with Tris-HCl (10 mM) pH 7.5, NaCl (10 mM), MgCl2 (3 mM), and sucrose (30%). For the extraction buffer (solution C), 10 mL was prepared with NaCl (420 mM), EGTA (0.1 mM), HEPES-KOH (50 mM, pH 7.5), EDTA Na₂ (0.5 mM), and glycerol (10%). For every 1 × 10^7 of cells, 1 mL of solution A (lysis buffer) was added and vortexed for 10 s, followed by a 15 min rest in an ice bath. Then, 4 mL of solution B (sucrose buffer) was added, and the mixture was centrifuged at 1300× g for 10 min at 4 °C. The supernatant was discarded, and the nuclear pellet was washed with a solution of NaCl (10 mM) and Tris-HCl (10 mM) at pH 7.5. The nuclear pellet was then resuspended in 100 µL of solution C (extraction buffer), sonicated for 30 s, and placed in an ice bath for 30 min. The nuclear solution was centrifuged at 20,000× g for 10 min and the supernatant, containing the nuclear extract, was collected. The nuclear extracts were stored at −80 °C. The Lowry colorimetric assay was used to standardize the protein concentration of the obtained nuclear extracts. A sample of the nuclear extract and a sample of bovine serum albumin as a control were each added to 1 mL of Lowry reagent (sodium tartrate 0.1 M, sodium bicarbonate 0.1 M, CuSO4 0.01 M, and 50% Folin reagent).
Prior to the experiment, a calibration curve was performed to ensure linearity.
Reactions were prepared in a 96-well plate following the specified volumes and conditions. Initially, the appropriate volume of deionized water (ddH2O) and 10 μL of buffer were added to each well. Subsequently, 5 μL of either acetylated or deacetylated substrate was added, depending on the experimental group.
Inhibition controls included Trichostatin A (TSA) at 1 mM, with 2 μL added to achieve a final concentration of 20 μM. The reaction was initiated by adding 4 μL of HeLa nuclear extract to each well, except for the developer control wells. The plate was incubated at 37 °C for 30 min, followed by the addition of 10 μL of developer solution. After a second incubation at 37 °C for another 30 min, fluorescence was measured using a plate reader with an excitation/emission of 350–380 nm/440–460 nm.
Remaining HDAC activity was estimated using the calibration curve, where the fluorescence units (AFU) obtained for each condition were converted into deacetylated substrate concentration (μM).

MDA-MB-231 cells = assay: MTT cell viability, MDA-MB-231; type: cell-based; details: for IC50: MTT, read-out: Cytotoxic Activity IC50 MDA-MB-231; for Cytotoxic activity, initial viability experiment: MDA-MB-231, 72 h of treatment; for Selectivity Index MCF-10A/ MDA-MB-231: ratio of IC50
Experimental: (§1) The BC cell lines MCF-7 and MDA-MB-231 were cultured in high-glucose DMEM medium with phenol red, supplemented with 7% and 10% fetal bovine serum (Gibco, Waltham, MA, USA), respectively, 1% Penicillin/Streptomycin (10,000 U/mL, Gibco, Waltham, MA, USA), and 1% non-essential amino acids (Gibco, Waltham, MA, USA). Cell cultures were maintained in a temperature-controlled incubator at 37 °C and 5% CO2 atmosphere. For the 72 h assays with MDA-MB-231, 1.8 x 10³ cells/well were seeded in 100 µL of medium.
(§2) The 3-(4,5-dimethylthiazol-2-yl)-2,5-diphenyl tetrazolium bromide assay was used to evaluate the effect of the designed compounds on cell viability. These compounds were initially dissolved in DMSO (dimethyl sulfoxide) as stock solutions at 150 mM. Cells were seeded in 96-well plates (NEST Biotechnology Co., Wuxi, China) at different densities, depending on the cell line used and the incubation time with the treatments, and left in 100 µL of the corresponding culture medium for 24 h to allow for adhesion. Then, the cells were treated with different concentrations of each compound, maintaining a maximum of 0.46% DMSO. After 48 or 72 h of treatment, 20 µL of MTT (5 mg/mL) in phosphate-buffered saline (PBS; Sigma) solution was added to each well and incubated again for 3 h. Subsequently, the blue formazan compound derived from the MTT was dissolved in 100 µL of DMSO. The optical density of the wells was measured at 550 nm using an ELISA reader (MultiSkan, Thermo Scientific, Waltham, MA, USA). Finally, cell viability was expressed as a percentage relative to the negative control (untreated and 0.46% DMSO).
(§3) Cytotoxicity data were analyzed using one-way ANOVA to evaluate differences between the treated groups and the negative control (DMSO). Multiple comparisons with the negative control were performed using Dunnett’s post hoc test. Statistical analysis was performed using GraphPad Prism 10 software (free trial, https://www.graphpad.com/demos/, accessed on 26 June 2024). For the calculation of the IC50s of the compounds, cytotoxicity responses were fitted to a variable slope sigmoidal equation (log(inhibitor) vs. normalized response). A p < 0.05 value was considered statistically significant.

MCF-7 cells = assay: MTT cell viability, MCF-7; type: cell-based; details: for IC50: MTT, read-out: Cytotoxic Activity IC50 MCF-7; for Selectivity Index MCF-10A/ MCF-7: ratio of IC50
Experimental: as §1, §2, §3

[2] = MTT cell viability, non-tumorigenic MCF-10A; type: cell-based; details: human, MCF-10A non-cancerous mammary epithelial cells, MTT, non-tumorigenic breast cells, read-out: Cytotoxic Activity IC50 MCF-10A
Experimental: (§4) For the culture of normal breast epithelial cells MCF-10A, DMEM-F12 medium without phenol red was used, supplemented with 5% fetal bovine serum (Gibco, Waltham, MA, USA), 1% Penicillin/Streptomycin (10,000 U/mL, Gibco, Waltham, MA, USA), 1% non-essential amino acids (Gibco, Waltham, MA, USA), 0.33% hydrocortisone, 0.2% insulin (100 U/mL), and 0.002% EGF (1 µg/µL). For the assays with MCF-10A cells, 2.5 × 10^3 cells/well were seeded in 100 µL of medium.
as §2, §3

MCF-10A cells = assay: MTT cell viability, non-tumorigenic MCF-10A; type: cell-based; details: 72 h
Experimental: as §4, §2, §3

[3] = 5 µM, single endpoint fluorescence
[4] = Homo sapiens, MDA-MB-231, 72 h, 72 h

Molecule	Effect on HDAC activity [1, 3]	IC50 (MDA-MB-231 cells; [4]) [µM]	Cytotoxic activity, initial viability experiment (MDA-MB-231 cells)	Selectivity Index MCF-10A/ MDA-MB-231 (MDA-MB-231 cells)	IC50 (MCF-7 cells; Homo sapiens, MCF7, 72 h, 72 h) [µM]	Selectivity Index MCF-10A/ MCF-7 (MCF-7 cells)	further results
CC(=O)NCCCCCC(=O)Nc1ccccc1O [5a, 6-Acetamido-N-(2-hydroxyphenyl) Hexanamide]	slight decrease in HDACs activity	–	–	–	–	–	–
CC(=O)NCCCCCC(=O)Nc1ccc(O)cc1 [5b, 6-Acetamido-N-(4-hydroxyphenyl) Hexanamide]	–	121 ± 26.7	significant cytotoxic activity	1.39	230	0.74	IC50 (MCF-7 cells; 72 h): 228 ± 52.9 µM; IC50 at 72 h [2]: 169 ± 20.6 µM
O=C(CCCCCNC(=O)C(F)(F)F)Nc1ccccc1O [6a, N-(2-hydroxyphenyl)-6-(2,2,2-trifluoroacetamido) Hexanamide]	slight decrease in HDACs activity	226	significant cytotoxic activity	>2.66	254 ± 34.4	>2.36	IC50 (MDA-MB-231 cells; 72 h): 225 ± 17.6 µM; fold less toxic than SAHA in MCF-10A cells (MCF-10A cells): ≈ 200 fold
O=C(CCCCCNC(=O)C(F)(F)F)Nc1ccc(O)cc1 [6b, N-(4-hydroxyphenyl)-6-(2,2,2-trifluoroacetamido) Hexanamide]	–	76.7	significant cytotoxic activity	2.01	45.7 ± 6.91	3.38	fold more potent than 5b in triple-negative breast cancer cells (MDA-MB-231 cells; 72 h): 1.5 fold; IC50 (MDA-MB-231 cells; 72 h): 76.7 ± 8.52 µM; fold more active than 5b in ER-positive cells (MCF-7 cells; 72 h): 5 fold; IC50 at 72 h [2]: 155 ± 21.6 µM; fold less toxic than SAHA in MCF-10A cells (MCF-10A cells): more than 50 fold
O=C(CCCCCCC(=O)Nc1ccccc1)NO [SAHA, suberoylanilide hydroxamic acid, reference compound]	reduced HDAC activity almost completely	–	–	–	–	–	–
CC(=O)NCCCCCC(=O)O [compound 2, 6-Acetamidohexanoic Acid]	slight decrease in HDACs activity	–	–	–	–	–	–
O=C(O)CCCCCNC(=O)C(F)(F)F [compound 3, 6-(2,2,2-trifluoroacetamido) Hexanoic Acid]	slight decrease in HDACs activity	–	–	–	–	–	–
Trichostatin A [TSA, reference compound]	–	–	–	–	–	–	Effect on HDAC activity ([1]; TSA 20 µM): reduced HDAC activity almost completely
